These results are taken from PubChem BioAssay AID248 (DTP/NCI, 2004).

Values joined by “and” are separate entries in the source; they are usually repeats but may differ in a detail not shown here. Equal entries are not always repeated. Toxic doses and inconclusive results are not listed.

This assay has as its system L1210 leukemia ip in BDF1 mice, survival T/C. Briefly: NCI In Vivo Anticancer Drug Screen. Data for tumor model L1210 Leukemia (intraperitoneal) in B6D2F1 (BDF1) mice. As to conditions: higher = longer survival. In a few lines:
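Read-out is survival time, reported as the treated-group measurement over the vehicle-control measurement.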

Setting [1] is: endpoint: mean survival time, dose: 100.0 mg/kg/injection, schedule: Q01DX009 (ip), vehicle: saline with Tween-80.
Setting [2] is: endpoint: mean survival time, dose: 200.0 mg/kg/injection, schedule: Q01DX009 (ip), vehicle: saline with Tween-80.
[3] abbreviates: endpoint: mean survival time, dose: 400.0 mg/kg/injection, schedule: Q01DX009 (ip), vehicle: saline with Tween-80.
Setting [4] is: endpoint: mean survival time, dose: 100.0 mg/kg/injection, schedule: Q01DX001 (ip), vehicle: saline.
Setting [5] is: endpoint: mean survival time, dose: 200.0 mg/kg/injection, schedule: Q01DX001 (ip), vehicle: saline.

On to `O=NN(CCCl)C(=O)NC1CCC(=O)NC1=O` (centres undefined), for which the T/C (endpoint: mean survival time, dose: 0.5 mg/kg/injection, schedule: Q01DX001 (ip), vehicle: other) was 104 % of control; the T/C (endpoint: mean survival time, dose: 1.0 mg/kg/injection, schedule: Q01DX001 (ip), vehicle: other) was 106 % of control; the T/C (endpoint: mean survival time, dose: 2.0 mg/kg/injection, schedule: Q01DX001 (ip), vehicle: other) was 118 % of control; the T/C (endpoint: mean survival time, dose: 5.5 mg/kg/injection, schedule: Q01DX001 (ip), vehicle: other) is 172 % of control; the T/C (endpoint: mean survival time, dose: 6.0 mg/kg/injection, schedule: Q01DX001 (ip), vehicle: other) is 203 % of control; the T/C (endpoint: mean survival time, dose: 8.0 mg/kg/injection, schedule: Q01DX001 (ip), vehicle: other) was 246 % of control. Moreover, the T/C is, setting by setting: (endpoint: mean survival time, dose: 11.0 mg/kg/injection, schedule: Q01DX001 (ip), vehicle: other) 300 % of control; (endpoint: mean survival time, dose: 12.0 mg/kg/injection, schedule: Q01DX001 (ip), vehicle: other) 292 % of control; (endpoint: mean survival time, dose: 16.0 mg/kg/injection, schedule: Q01DX001 (ip), vehicle: other) 315 % of control and 326 % of control; (endpoint: mean survival time, dose: 22.0 mg/kg/injection, schedule: Q01DX001 (ip), vehicle: other) 340 % of control; (endpoint: mean survival time, dose: 24.0 mg/kg/injection, schedule: Q01DX001 (ip), vehicle: other) 220 % of control; (endpoint: mean survival time, dose: 33.0 mg/kg/injection, schedule: Q01DX001 (ip), vehicle: other) 340 % of control. Also, the T/C was 93 % of control (endpoint: mean survival time, dose: 36.0 mg/kg/injection, schedule: Q01DX001 (ip), vehicle: other); 295 % of control (endpoint: mean survival time, dose: 44.0 mg/kg/injection, schedule: Q01DX001 (ip), vehicle: other); 106 % of control (endpoint: median survival time, dose: 0.63 mg/kg/injection, schedule: Q01DX001 (ip), vehicle: other); 110 % of control (endpoint: median survival time, dose: 0.63 mg/kg/injection, schedule: Q01DX001 (ip), vehicle: saline); 103 % of control (endpoint: median survival time, dose: 0.63 mg/kg/injection, schedule: Q01DX001 (iv), vehicle: other); 108 % of control (endpoint: median survival time, dose: 0.63 mg/kg/injection, schedule: Q01DX001 (iv), vehicle: saline). In addition, the T/C (endpoint: median survival time, dose: 1.25 mg/kg/injection, schedule: Q01DX001 (ip), vehicle: other) was 116 % of control; the T/C (endpoint: median survival time, dose: 1.25 mg/kg/injection, schedule: Q01DX001 (ip), vehicle: saline) was 120 % of control; the T/C (endpoint: median survival time, dose: 1.25 mg/kg/injection, schedule: Q01DX001 (iv), vehicle: other) was 118 % of control; the T/C (endpoint: median survival time, dose: 1.25 mg/kg/injection, schedule: Q01DX001 (iv), vehicle: saline) was 106 % of control; the T/C (endpoint: median survival time, dose: 2.5 mg/kg/injection, schedule: Q01DX001 (iv), vehicle: other) was 122 % of control; the T/C (endpoint: median survival time, dose: 2.5 mg/kg/injection, schedule: Q01DX001 (iv), vehicle: saline) was 118 % of control. The T/C reads like this: (endpoint: median survival time, dose: 5.0 mg/kg/injection, schedule: Q01DX001 (ip), vehicle: other) 227 % of control; (endpoint: median survival time, dose: 5.0 mg/kg/injection, schedule: Q01DX001 (ip), vehicle: saline) 193 % of control; (endpoint: median survival time, dose: 5.0 mg/kg/injection, schedule: Q01DX001 (iv), vehicle: other) 151 % of control; (endpoint: median survival time, dose: 5.0 mg/kg/injection, schedule: Q01DX001 (iv), vehicle: saline) 150 % of control; (endpoint: median survival time, dose: 10.0 mg/kg/injection, schedule: Q01DX001 (ip), vehicle: other) 600 % of control; (endpoint: median survival time, dose: 10.0 mg/kg/injection, schedule: Q01DX001 (ip), vehicle: saline) 598 % of control. Further, the T/C was 290 % of control (endpoint: median survival time, dose: 10.0 mg/kg/injection, schedule: Q01DX001 (iv), vehicle: other); 253 % of control (endpoint: median survival time, dose: 10.0 mg/kg/injection, schedule: Q01DX001 (iv), vehicle: saline); 550 % of control (endpoint: median survival time, dose: 20.0 mg/kg/injection, schedule: Q01DX001 (ip), vehicle: other); 596 % of control (endpoint: median survival time, dose: 20.0 mg/kg/injection, schedule: Q01DX001 (ip), vehicle: saline); 599 % of control (endpoint: median survival time, dose: 20.0 mg/kg/injection, schedule: Q01DX001 (iv), vehicle: other); 600 % of control (endpoint: median survival time, dose: 20.0 mg/kg/injection, schedule: Q01DX001 (iv), vehicle: saline). The T/C was 101 % of control (endpoint: median survival time, dose: 40.0 mg/kg/injection, schedule: Q01DX001 (ip), vehicle: other) and 104 % of control (endpoint: median survival time, dose: 40.0 mg/kg/injection, schedule: Q01DX001 (ip), vehicle: saline).

`CC(C)CC(Br)C(=O)NC(CC(C)C)C(=O)O` (centres undefined): the T/C was 96 % of control under setting [1], 88 % of control under setting [2] and 92 % of control under setting [3].

Regarding `CC(=O)OCC(CCC(C)C)=C(C)C`, the T/C was 98 % of control under setting [1]; 97 % of control (endpoint: mean survival time, dose: 100.0 mg/kg/injection, schedule: Q04DX003 (ip), vehicle: saline with Tween-80); 98 % of control under setting [2]; 92 % of control (endpoint: mean survival time, dose: 200.0 mg/kg/injection, schedule: Q04DX003 (ip), vehicle: saline with Tween-80); 102 % of control under setting [3]; 92 % of control (endpoint: mean survival time, dose: 400.0 mg/kg/injection, schedule: Q04DX003 (ip), vehicle: saline with Tween-80).

On to `CCCCC(C)C1(CC)C(=O)NC(=O)NC1=O` (centres undefined), for which, for the setting “endpoint: mean survival time, dose: 75.0 mg/kg/injection, schedule: Q01DX001 (ip), vehicle: saline”, the T/C is 95 % of control.

Consider `CC1CC(NCCO)CC(C)(C)C1` (centres undefined), for which the T/C runs as follows: (endpoint: mean survival time, dose: 75.0 mg/kg/injection, schedule: Q01DX001 (ip), vehicle: acid diluted with saline) 122 % of control; (endpoint: mean survival time, dose: 150.0 mg/kg/injection, schedule: Q01DX001 (ip), vehicle: acid diluted with saline) 100 % of control.

Regarding `CC(=O)Nc1cccc([N+](=O)[O-])c1`, the T/C (endpoint: mean survival time, dose: 50.0 mg/kg/injection, schedule: Q01DX009 (ip), vehicle: saline with Tween-80) is 100 % of control; the T/C under setting [4] is 108 % of control; the T/C under setting [1] is 90 % of control; the T/C under setting [5] was 102 % of control; the T/C under setting [2] was 103 % of control; the T/C (endpoint: mean survival time, dose: 400.0 mg/kg/injection, schedule: Q01DX001 (ip), vehicle: saline) is 108 % of control.

`CC1(C)CCO/C(=C\C(=O)N2Cc3cc4ccccc4nc3C2)N1`: the T/C is 88 % of control (endpoint: mean survival time, dose: 100.0 mg/kg/injection, schedule: Q01DX001 (ip), vehicle: Klucel (hydroxypropylcellulose) (HPC)); 86 % of control (endpoint: mean survival time, dose: 200.0 mg/kg/injection, schedule: Q01DX001 (ip), vehicle: Klucel (hydroxypropylcellulose) (HPC)); 90 % of control (endpoint: mean survival time, dose: 400.0 mg/kg/injection, schedule: Q01DX001 (ip), vehicle: Klucel (hydroxypropylcellulose) (HPC)).

In the case of `CCCC(CCC)=NCCN=C(CCC)CCC`, the T/C runs as follows: (endpoint: mean survival time, dose: 100.0 mg/kg/injection, schedule: Q01DX009 (ip), vehicle: saline) 97 % of control; (endpoint: mean survival time, dose: 200.0 mg/kg/injection, schedule: Q01DX009 (ip), vehicle: saline) 94 % of control.

Consider `O=C(O)C1OC1C(=O)O` (centres undefined), for which the T/C (endpoint: mean survival time, dose: 75.0 mg/kg/injection, schedule: Q01DX009 (ip), vehicle: saline with Tween-80) is 101 % of control; the T/C (endpoint: mean survival time, dose: 75.0 mg/kg/injection, schedule: Q04DX003 (ip), vehicle: saline) was 100 % of control; the T/C (endpoint: mean survival time, dose: 150.0 mg/kg/injection, schedule: Q01DX009 (ip), vehicle: saline with Tween-80) was 103 % of control; the T/C (endpoint: mean survival time, dose: 150.0 mg/kg/injection, schedule: Q04DX003 (ip), vehicle: saline) was 98 % of control; the T/C (endpoint: mean survival time, dose: 300.0 mg/kg/injection, schedule: Q01DX009 (ip), vehicle: saline with Tween-80) was 95 % of control; the T/C (endpoint: mean survival time, dose: 300.0 mg/kg/injection, schedule: Q04DX003 (ip), vehicle: saline) was 100 % of control.

Turning to `COc1cc(-c2ccc(Nc3ccccc3C(=O)O)c(OC)c2)ccc1N`, the T/C reads like this: (endpoint: mean survival time, dose: 15.0 mg/kg/injection, schedule: Q01DX Z (ip), vehicle: carboxymethylcellulose (CMC)) 102 % of control; (endpoint: mean survival time, dose: 22.0 mg/kg/injection, schedule: Q01DX Z (ip), vehicle: carboxymethylcellulose (CMC)) 117 % of control; (endpoint: mean survival time, dose: 23.0 mg/kg/injection, schedule: Q01DX Z (ip), vehicle: carboxymethylcellulose (CMC)) 112 % of control; (endpoint: mean survival time, dose: 35.0 mg/kg/injection, schedule: Q01DX Z (ip), vehicle: carboxymethylcellulose (CMC)) 111 % of control and 121 % of control; (endpoint: mean survival time, dose: 50.0 mg/kg/injection, schedule: Q01DX001 (ip), vehicle: saline) 121 % of control; under setting [4], 115 % of control. In addition, the T/C under setting [5] was 114 % of control.
